The test system of test [1] is Loricrin (LORI) messenger. As to the kind of experiment: Loricrin messenger expression by quantitative RT-PCR in reconstructed epidermis SkinEthic. It is filed as cell-based, human. Here is the method:
(§1) The study was carried out on a model of reconstructed epidermis SkinEthic. Upon receiving, the epidermes were precultured for 24 hours in SkinEthic medium. The culture medium was then replaced with medium containing the test product (two epidermes per concentration tested), and then the epidermes were cultured for 24 hours at 37° C. and 5% CO2. A batch of 2 epidermes was not treated. The culture supernatants were then removed and the epidermes were rinsed with a PBS solution, cut and deposited in sterile RNA-free tubes in the presence of Tri-Reagent (Sigma T9424) and then immediately frozen at −80° C.
(§2) The pairs of primers which were used in this study allow the amplification of the following specific fragments:
(§3) The reverse transcription was carried out in the following manner: • extraction of the total RNA of each epidermis with the aid of Tri-Reagent according to the protocol recommended by the supplier, and then a new extraction with chloroform and precipitation with isopropanol. • removal of the traces of potentially contaminating DNA by treating with the DNA-free system (Ambion) • carrying out of the reaction of reverse transcription of the mRNA in the presence of the oligo(dT) primer and of the enzyme Superscript II (Gibco) • quantification, by fluorescence, of the synthesized cDNA and adjustment of the concentrations of 50 ng/ml.
(§4) The PCR reactions (polymerase chain reactions) were carried out by quantitative PCR with the “Light cycler” system (Roche Molecular Systems Inc.) according to the procedures recommended by the supplier.
(§5) The PCR conditions were the following: activation of 10 min at 95° C., PCR reactions (10 sec at 95° C., 5 sec at 64° C. and 35 sec at 72° C.) 40 cycles, fusion of 5 sec at 95° C. and then 5 sec at 60° C.
(§6) The incorporation of fluorescence into the amplified DNA was measured continuously during the PCR cycles. This system makes it possible to obtain fluorescence measurement curves as a function of the PCR cycles and to thereby evaluate a relative expression value for each marker. The RE (relative expression) value is expressed in arbitrary units according to the following formula: (1/2^number of cycles)×10^6.
(§7) The results were expressed relative to the quantity of actin messenger (reference gene) and are represented, per marker, in the following tables.

Test [2] concerns Transglutaminase 1 (TGK) messenger. In words: Transglutaminase I (TGK) messenger expression by quantitative RT-PCR in reconstructed epidermis SkinEthic. It is filed as cell-based, human. Here is the method: as §1, §2, §3, §4, §5, §6, §7
Test [3] relates to Calmodulin-like skin protein (CLSP) messenger. In words: Calmodulin-like skin protein (CLSP) messenger expression by quantitative RT-PCR in reconstructed epidermis SkinEthic. It is filed as cell-based, human. The settings on record: 0.01 μM, 24 hours. The protocol:
as §1, §2, §3, §4, §5, §6, §7

The test system of the next test is epidermal keratinocyte. The following applies: Nissen J B et al, Exp. Dermatol. 1997; cited from earlier work.
Setting [4] is: 0.01 μM, 24 hours, control = 100.

For the substance β-Endorphin [Beta-endorphin], in test [1] (0.01 μM, 24 hours), the LORI/actin is reported as 10.2. Also, the “RE*LORI (UA)” value in test [1] (0.01 μM, 24 hours) is on record as 11.24 UA. Further, the “RE*actin (UA)” value in test [1] (0.01 μM, 24 hours, reference gene, loricrin table) is on record as 1.11 UA; in test [2] (0.01 μM, 24 hours, reference gene, TGK table), 1.11 UA; in test [3] (reference gene, CLSP table) it was 1.07 UA. The substance also showed an LORI/actin % control in test [1] (setting [4]) of 179%. The “expression of the loricrin marker (in words)” value in test [1] (at physiological concentration) is “stimulate the expression”. Moreover, the “RE*TGK (UA)” value in test [2] (0.01 μM, 24 hours) is 0.165 UA. Besides, in test [2] (setting [4]), the TGK/actin % control was found to be 176%. Further, in test [2] (at physiological concentration), the “expression of the TGK messenger (in words)” value is recorded as “an effect of the same type, although slightly less pronounced”. Further, the CLSP/actin in test [3] is on record as 0.0961. Further, the “RE*CLSP (UA)” value in test [3] was determined as 0.1032 UA. The substance also showed a CLSP/actin % control in test [3] (control = 100) of 174%. For the same substance, the “effect on epidermal proliferation and differentiation” value in the test on epidermal keratinocyte was “no effect”.

(Values after patent publication US20060069032A1 (L'OREAL, priority 2003, published 2006).)
